Data: patent US10633389B2, “CARM1 inhibitors and uses thereof” (Epizyme, Inc., priority 2013, dated 2020)

Experiments:
[1] = system: asymmetric di-methyl PABP1 in RKO cells; assay: RKO methylation assay, In Cell Western (ICW) for asymmetric di-methyl PABP1; assay type: cell-based; conditions: Homo sapiens, RKO, Cellular potencies, ICW PABP1me2a
Summary of the method: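 RKO cells treated with compound for 48 h at 37 °C, then fixed, permeabilized and immunostained for asymmetric di-methyl PABP1, with DRAQ5 as DNA stain. Infrared 700/800 nm signal ratio normalized to DMSO and 20 μM reference-compound controls; IC50 from triplicate wells.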

human CARM1 (PRMT4) = human CARM1 (PRMT4) (Homo sapiens (Human), UniProt Q86X55); assay: CARM1 enzyme assay on peptide substrate (3H-SAM Flashplate); conditions: Biochemical potencies, read-out: Biochem IC50
human CARM1 (PRMT4), sequence (Q86X55 other isoform, or with tags, fused parts or gaps isoform Q86X55-1): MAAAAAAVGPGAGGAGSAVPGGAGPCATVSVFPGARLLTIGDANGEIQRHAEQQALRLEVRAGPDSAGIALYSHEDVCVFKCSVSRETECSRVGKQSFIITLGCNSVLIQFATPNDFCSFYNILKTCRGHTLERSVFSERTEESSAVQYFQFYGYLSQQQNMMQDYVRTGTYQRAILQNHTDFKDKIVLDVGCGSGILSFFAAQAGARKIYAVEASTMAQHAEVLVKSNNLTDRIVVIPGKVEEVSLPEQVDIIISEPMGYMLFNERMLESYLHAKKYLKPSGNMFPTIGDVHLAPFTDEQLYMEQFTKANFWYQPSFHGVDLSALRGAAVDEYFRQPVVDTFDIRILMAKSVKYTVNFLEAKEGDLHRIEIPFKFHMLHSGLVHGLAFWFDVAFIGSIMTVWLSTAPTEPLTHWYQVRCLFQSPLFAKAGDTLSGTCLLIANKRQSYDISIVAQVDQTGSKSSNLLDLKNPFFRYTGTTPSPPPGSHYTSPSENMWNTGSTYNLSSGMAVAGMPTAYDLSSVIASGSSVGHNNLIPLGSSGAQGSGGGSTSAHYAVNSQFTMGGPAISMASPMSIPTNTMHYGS
Source text: S-adenosylmethionine (SAM), S-adenosylhomocysteine (SAH), bicine, Tween20, dimethylsulfoxide (DMSO), bovine skin gelatin (BSG), sodium butyrate and Tris(2-carboxyethyl)phosphine hydrochloride solution (TCEP) were purchased from Sigma-Aldrich at the highest level of purity possible. ^3H-SAM was purchase from American Radiolabeled Chemicals with a specific activity of 80 Ci/mmol. 384-well streptavidin Flashplates were purchased from PerkinElmer.
Peptide representative of human histone H3 residues 16-30 was synthesized with an N-terminal linker-affinity tag motif and a C-terminal amide cap by 21st Century Biochemicals. […] The sequence was Biot-Ahx-[…]-amide and contained a monomethylated arginine at position 26 (SEQ ID NO.:1).
The gene sequence encoding isoform 1 containing a deletion of amino acids 539-561 was amplified subsequently and subcloned into pFastBacMam (Viva Biotech).
Recombinant baculovirus were generated according to Bac-to-Bac kit instructions (Life Technologies). Protein over-expression was accomplished by infecting exponentially growing HEK 293F cell culture at 1.3×10^6 cell/ml with virus (MOI=10) in the presence of 8 mM sodium butyrate. Infections were carried out at 37° C. for 48 hours, harvested by centrifugation, and stored at −80° C. for purification.
Expressed full-length human Flag- and His-tagged CARM1 protein was purified from cell paste by anti-flag M2 affinity chromatography with resin equilibrated with buffer containing 20 mM Tris, 150 mM NaC, 5% glycerol, pH 7.8. Column was washed with 500 mM NaCl in buffer A and Flag-CARM1-His was eluted with 200 ug/ml FLAG peptide in buffer A. Pooled fractions were dialyzed in 20 mM Tris, 150 mM NaCl, 5% glycerol and 1 mM DTT, pH 7.8.
The assays were all performed in a buffer consisting of 20 mM Bicine (pH=7.6), 1 mM TCEP, 0.005% BSG, and 0.002% Tween 20, prepared on the day of use. Compounds in 100% DMSO (1 ul) were spotted into a polypropylene 384-well V-bottom plates (Greiner) using a Platemate Plus outfitted with a 384-channel head (Thermo Scientific). DMSO (1 ul) was added to Columns 11, 12, 23, 24, rows A-H for the maximum signal control and 1 ul of SAH, a known product and inhibitor of CARM1, was added to columns 11, 12, 23, 24, rows I-P for the minimum signal control. A cocktail (40 ul) containing the CARM1 enzyme was added by Multidrop Combi (Thermo-Fisher). The compounds were allowed to incubate with CARM1 for 30 min at room temperature, then a cocktail (10 ul) containing ^3H-SAM and peptide was added to initiate the reaction (final volume=51 ul). The final concentrations of the components were as follows: CARM1 was 0.25 nM, ^3H-SAM was 30 nM, peptide was 250 nM, SAH in the minimum signal control wells was 1 mM, and the DMSO concentration was 2%. The assays were stopped by the addition of non-radiolabeled SAM (10 ul) to a final concentration of 300 uM, which dilutes the ^3H-SAM to a level where its incorporation into the peptide substrate is no longer detectable. 50 ul of the reaction in the 384-well polypropylene plate was then transferred to a 384-well Flashplate and the biotinylated peptides were allowed to bind to the streptavidin surface for at least 1 hour before being washed once with 0.1% Tween20 in a Biotek ELx405 plate washer. The plates were then read in a PerkinElmer TopCount plate reader to measure the quantity of ^3H-labeled peptide bound to the Flashplate surface, measured as disintegrations per minute (dpm) or alternatively, referred to as counts per minute (cpm).
The Hill Coefficient normally allowed to float but may also be fixed at 1 in a 3-parameter fit.

| Compound | IC50 [1] [µM] | IC50 (human CARM1 (PRMT4)) [µM] |
| --- | --- | --- |
| CNCC(O)COc1cc(Cl)cc(-c2nc(-c3c[nH]c4ccccc34)c(C)c(N(C)C3CCOCC3)n2)c1 (centres unmarked) [Example 625-1a] | 10 to 20 | 0.1 to 1 |
| CNCC(O)COc1cccc(-c2nc(N[C@H]3C[C@@H](O)C3)cc(N(C)C3CCOCC3)n2)c1 (some centres unmarked) [Example 599-1a] | 10 to 20 | 0.1 to 1 |
| CNCC(O)COc1cccc(-c2nc(Nc3c(C)nn(C)c3C)cc(-c3c(C)noc3C)n2)c1 (centres unmarked) [Example 122-1a] | 10 to 20 | 1 to 3 |
| CNCC(O)COc1cccc(-c2nc(C(=O)N(C)C)cc(N(C)C3CCOCC3)n2)c1 (centres unmarked) [Example 593-1a] | 10 to 20 | 0.1 to 1 |
| CNCC(O)COc1cccc(-c2nc(N[C@H]3CCOC3)c(C)c(-c3ccncc3)n2)c1 (some centres unmarked) [Example 333-1a] | 10 to 20 | 0.1 to 1 |
| CNCC(O)COc1cccc(-c2nc(N[C@H]3CO[C@H]4OCC[C@H]43)c(C)c(N3CCOCC3)n2)c1 (some centres unmarked) [Example 374-1a] | 10 to 20 | 0.1 to 1 |
| CNCC(O)COc1cccc(-c2nc(NC3CCOCC3)cc(-c3ccc(S(C)(=O)=O)cc3)n2)c1 (centres unmarked) [Example 656-1a] | ≥ 20 | 0.1 to 1 |
| CNCC(O)COc1cccc(-c2nc(NC3CCOCC3)cc(C3CC3)n2)c1 (centres unmarked) [Example 646-1a] | ≥ 20 | 0.1 to 1 |
| CNCC(O)COc1cccc(-c2nc(C(=O)N(C)C)cc(-c3c(C)noc3C)n2)c1 (centres unmarked) [Example 63-1a] | 10 to 20 | 1 to 3 |
| CNCC(O)COc1cccc(-c2nc(Nc3ncc(OC)cn3)cc(N(C)C3CCOCC3)n2)c1 (centres unmarked) [Example 551-1a] | 10 to 20 | 0.1 to 1 |
| CNCC(O)COc1cccc(-c2nc(N[C@H]3C[C@@H](C(=O)O)C3)c(C)c(-c3c(C)noc3C)n2)c1 (some centres unmarked) [Example 223-1a] | 10 to 20 | 1 to 3 |
| CNCC(O)COc1cccc(-c2nc(N[C@@H]3CCOC3)cc(N3CCOCC3)n2)c1 (some centres unmarked) [Example 387-1a] | 10 to 20 | 0.1 to 1 |
| CNCC(O)COc1cccc(-c2nccc(-c3c(C)noc3C)n2)c1 (centres unmarked) [Example 2-1a] | 10 to 20 | 0.1 to 1 |
| CNCC(O)COc1cccc(-c2nc(NC3CCOC3)c(C)c(N3CCCC4(CCOCC4)C3)n2)c1 (centres unmarked) [Example 401-1a] | 10 to 20 | 0.1 to 1 |
| CNCC(O)COc1cccc(-c2nc(N(C)c3cnc(OC)nc3)cc(N(C)C3CCOCC3)n2)c1 (centres unmarked) [Example 532-1a] | 5 to 10 | 0.1 to 1 |
| CNCC(O)COc1cccc(-c2nc(NC3CCOCC3)cc(N(C)C)n2)c1 (centres unmarked) [Example 8-1] | – | 0.1 to 1 |
| CNCC(O)COc1cccc(-c2nc(NC3CCOC3=O)cc(-c3c(C)noc3C)n2)c1 (centres unmarked) [Example 24-1a] | – | 0.1 to 1 |
| NCC(O)COc1cccc(-c2cc(N3CCOCC3)nc(N3CCOCC3)n2)c1 (centres unmarked) [Example 7-2] | – | 0.1 to 1 |
| CNCC(O)COc1cccc(-c2cc(C3CCOCC3)nc(N[C@H]3CCOC3)n2)c1 (some centres unmarked) [Example 10-2] | – | 0.1 to 1 |
| CNCC(O)COc1cccc(-c2nc(N[C@H]3CC[C@H](O)CC3)cc(-c3c(C)noc3C)n2)c1 (some centres unmarked) [Example 32-1a] | 10 to 20 | – |
| CNCC(O)COc1cccc(-c2nc(NC3CCOC3)c(C)c(N3CC4(CCNCC4)c4ccccc43)n2)c1 (centres unmarked) [Example 398-1a] | 10 to 20 | – |
| CNCC(O)COc1cccc(-c2nc(-c3c(C)noc3C)c(C)c(N3CCS(=O)(=O)CC3)n2)c1 (centres unmarked) [Example 57-1a] | 10 to 20 | – |
| CNCC(O)COc1cccc(-c2nc(N[C@@H]3CCOC3)c(C)c(N3CCC(n4nc(C)cc4C)C3)n2)c1 (some centres unmarked) [Example 468-1a] | 5 to 10 | – |
| CNCC(O)COc1cccc(-c2nc(-c3c(C)noc3C)cc(N3C[C@H]4C[C@@H]3CN4)n2)c1 (some centres unmarked) [Example 109-1a] | 10 to 20 | – |
| CNCC(O)COc1cccc(-c2nc(-c3c(C)noc3C)c(C)c(N3CCO[C@@H](C)C3)n2)c1 (some centres unmarked) [Example 209-1a] | 5 to 10 | – |

Next, values leading:

| IC50 [1] [µM] | IC50 (human CARM1 (PRMT4)) [µM] | Compound |
| --- | --- | --- |
| < 5 | 0.1 to 1 | CCS(=O)(=O)N1CCN(c2cc(N(C)C3CCOCC3)nc(-c3cccc(OCC(O)CNC)c3)n2)C[C@@H]1C (some centres unmarked) [Example 497-1a] |
| < 5 | – | CNC[C@@H](O)COc1ccc(Cl)c(-c2nc(-c3c(C)noc3C)c(C)c(N3Cc4cc(C)cnc4C3)n2)c1 [Example 296-3] |
| < 5 | – | CNCC(O)COc1ccc(Cl)c(-c2nc(N[C@H]3CCN(C(=O)OC)C[C@H]3F)c(C)c(-c3c(C)noc3C)n2)c1 (some centres unmarked) [Example 4-3] |
| < 5 | – | CNCC(O)COc1cccc(-c2nc(-c3c(C)noc3C)cc(N3CCN(C(=O)N(C)C)CC3)n2)c1 (centres unmarked) [Example 120-1a] |
| < 5 | – | CNCC(O)COc1ccc(Cl)c(-c2nc(NC3CCN(C(=O)OC)CC3)c(Cl)c(-c3c(C)noc3C)n2)c1 (centres unmarked) [Example 187-1a] |
| < 5 | – | CNCC(O)COc1cccc(-c2nc(N[C@@H]3CCNC[C@@H]3F)c(C)c(-c3c(C)noc3C)n2)c1 (some centres unmarked) [Example 224-1a] |
| < 5 | – | CCOC(=O)N1CCOC[C@@H]1CNc1nc(-c2cc(OCC(O)CNC)ccc2Cl)nc(-c2c(C)nsc2C)c1C (some centres unmarked) [Example 93-3] |
| < 5 | – | CNCC(O)COc1cccc(-c2nc(NCC3CCCN(CC(F)F)C3)c(C)c(-c3c(C)noc3C)n2)c1 (centres unmarked) [Example 193-1a] |
| < 5 | – | CNC[C@@H](O)COc1ccc(Cl)c(-c2nc(NC[C@H]3CCOC3)c(C)c(-c3c(C)noc3C)n2)c1 [Example 233-3] |
| < 5 | – | CNC[C@@H](O)COc1ccc(Cl)c(-c2nc(N[C@@H]3CCO[C@@H](C)C3)c(C)c(-c3c(C)noc3C)n2)c1 [Example 257-3] |
| < 5 | – | CNCC(O)COc1cccc(-c2nc(N[C@H]3C[C@@H](O)C3)c(C)c(-c3c(C)noc3C)n2)c1 (some centres unmarked) [Example 256-1a] |
| < 5 | – | CNCC(O)COc1cccc(-c2nc(N[C@@H]3CCOC3)c(C)c(N3CCN(C4CC4)[C@H](C)C3)n2)c1 (some centres unmarked) [Example 466-1a] |
| < 5 | – | CNC[C@@H](O)COc1ccc(Cl)c(-c2nc(-c3c(C)noc3C)c(C)c(N3Cc4nn(C)c(C)c4C3)n2)c1 [Example 252-3] |
| < 5 | – | CNCC(O)COc1cc(OC)cc(-c2nc(NC3CCOCC3)c(C)c(-c3c(C)noc3C)n2)c1 (centres unmarked) [Example 75-1a] |
| < 5 | – | CNC[C@@H](O)COc1ccc(Cl)c(-c2nc(NC3CC(COC)C3)c(C)c(-c3c(C)noc3C)n2)c1 (some centres unmarked) [Example 219-3] |
| < 5 | – | CNC[C@@H](O)COc1ccc(C(F)(F)F)c(-c2nc(-c3c(C)noc3C)c(C)c(N3Cc4cncnc4C3)n2)c1 [Example 247-3] |
| < 5 | – | CNC[C@@H](O)COc1ccc(Cl)c(-c2nc(N[C@@H]3CCN(C(=O)OC)[C@H](C)C3)c(C)c(-c3c(C)noc3C)n2)c1 [Example 135-3] |
| < 5 | – | CNC[C@H](O)COc1ccc(Cl)c(-c2nc(N[C@H]3C[C@@H](OC)C3)c(C)c(-c3c(C)noc3C)n2)c1 [Example 54-3] |
